Reference: PMC8234273, “A Sesquiterpene Synthase from the Endophytic Fungus Serendipita indica Catalyzes Formation of Viridiflorol” (Biomolecules, 2021)

Target: T1, SiTPS (Serendipita indica, UniProt G4TNA6)
T1 construct: gene PIIN_06735; full coding region from S. indica cDNA, C-terminal His-tag (pET28b+), E. coli C41, His SpinTrap purified and desalted
T1 sequence (G4TNA6 1-515): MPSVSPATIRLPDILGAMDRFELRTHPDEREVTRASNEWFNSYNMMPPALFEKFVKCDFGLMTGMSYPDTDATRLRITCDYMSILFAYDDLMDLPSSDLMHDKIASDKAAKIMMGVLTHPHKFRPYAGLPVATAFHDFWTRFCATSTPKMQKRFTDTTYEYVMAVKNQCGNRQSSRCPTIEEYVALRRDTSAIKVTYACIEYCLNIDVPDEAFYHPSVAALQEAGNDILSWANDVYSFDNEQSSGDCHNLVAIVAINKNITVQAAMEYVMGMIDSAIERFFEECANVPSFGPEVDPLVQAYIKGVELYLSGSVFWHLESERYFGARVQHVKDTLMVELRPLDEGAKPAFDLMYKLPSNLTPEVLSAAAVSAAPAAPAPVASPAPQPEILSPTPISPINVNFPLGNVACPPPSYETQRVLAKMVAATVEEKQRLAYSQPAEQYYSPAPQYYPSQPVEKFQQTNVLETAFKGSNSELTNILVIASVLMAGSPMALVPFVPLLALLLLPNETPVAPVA
Test: in vitro terpene synthase assay, GC-MS of hexane extract
Assay type: biochemical
Details: 10 mM MgCl2, 100 mM KCl, 5 mM DTT, 10% glycerol, 50 mM HEPES pH 7.2, 30 °C, 1 h

CC(C)=CCC/C(C)=C/CC/C(C)=C/COP(=O)(O)OP(=O)(O)O [E,E-FPP]
in vitro terpene synthase assay, GC-MS of hexane extract: Hexane extracts showed activity only when SiTPS was incubated with E,E-FPP
